The source of these data is US20150164884A1, “HCV COMBINATION THERAPY” (Boehringer Ingelheim International GmbH, priority 2009, published 2015).

Values after ≈ are worked out from the molar mass of the structure shown. Structures can show the parent of a compound that is named as a salt. Where two headings read alike, the source gives them in different places. Bounds are passed on as bounds.

Data set [1] in a line: Solubility of Compound (1) forms in non-aqueous excipients (HPLC of filtrate). The class given is physicochemical. To be noted: room temperature, up to 4 days. How it is done:
(§1) The solubility of Compound (1), as either Type A or the sodium salt form, was investigated in various non-aqueous solvents. The solutions were prepared by addition of excess Compound (1) to 0.25 ml to 1.0 ml of excipient in amber screw cap vials with Teflon lined caps. The samples were allowed to rotate at room temperature for up to 4 days. Sampling was done by centrifuging (14,000 rpm on the Eppendorf model 5415C table top centrifuge) and filtering through a 0.45 μm PVDF filter. The filtrate was subject to HPLC analysis for determining the solubility. HPLC analysis was conducted with an to Agilent 1100 using gradient or isocratic conditions. Both methods used acetonitrile/water (each with 0.1% Triflouroacetic Acid) and an ACE C-18 stationary phase with column heating maintained at 40-45° C. The wavelength of detection was set at 220 nm or 264 nm Wet solids were collected and analyzed for form change (stability) by XRPD.

Data set [2] can be described thus: Form change (stability) study of slurried solids by XRPD. The class given is physicochemical. Particulars: slurried in either ethanol or propylene glycol. How it is done:
as §1
XRPD analyses for the form change studies were conducted on a Bruker AXS X-Ray Powder Diffractometer Model D8 Discover or D8 Advance, available from Bruker AXS, Inc. of Madison, Wis., using CuKα radiation. The tube power was set to either 40 kV and 40 mA or 40 kV and 30 mA. […]

Consider `C=C[C@@H]1C[C@]1(NC(=O)[C@@H]1C[C@H](Oc2cc(-c3csc(NC(=O)C(C)C)n3)nc3c(Br)c(OC)ccc23)CN1C(=O)[C@@H](NC(=O)OC1CCCC1)C(C)(C)C)C(=O)O` [Compound (1) Na salt], for which the Solubility (in general, how much of the substance goes into solution per volume) in data set [1] (Capmul MCM (non-aqueous excipient), oil or lipid, thermodynamic from solid, excipient Capmul MCM, read-out: Solubility) is 262.5 ± 2.6 mg/mL; in data set [1] (Capmul PG8 (non-aqueous excipient), oil or lipid, thermodynamic from solid, excipient Capmul PG8, read-out: Solubility) it was less than 169 mg/mL; in data set [1] (Labrasol (non-aqueous excipient), oil or lipid, thermodynamic from solid, excipient Labrasol, read-out: Solubility) it was 175 ± 11.8 mg/mL; in data set [1] (PEG 400 (non-aqueous excipient), organic solvent or mixture, thermodynamic from solid, excipient PEG 400, read-out: Solubility), 234 ± 34 mg/mL; in data set [1] (excipient Ethanol) it was 187.0 ± 23.9 mg/mL; in data set [1] (excipient Transcutol P), 430.6 ± 14.7 mg/mL. In addition, the Solubility in data set [1] (propylene glycol (non-aqueous excipient), organic solvent or mixture, thermodynamic from solid, excipient Propylene Glycol, read-out: Solubility) was greater than 468 mg/mL. Besides, the “Form stability (change in XRPD pattern of remaining solid phase)” value in data set [2] (listed as crystalline sodium salt form of Compound (1)) is listed as “no change in the XRPD pattern”.

Regarding `C=C[C@@H]1C[C@]1(NC(=O)[C@@H]1C[C@H](Oc2cc(-c3csc(NC(=O)C(C)C)n3)nc3c(Br)c(OC)ccc23)CN1C(=O)[C@@H](NC(=O)OC1CCCC1)C(C)(C)C)C(=O)O` [Type A of Compound (1)], the Solubility is given as 220.6 ± 7.4 mg/mL (≈ 254 mM) in data set [1] (excipient Capmul MCM); 172.6 ± 8.3 mg/mL (≈ 198 mM) in data set [1] (excipient Capmul PG8); 0.9 ± 0.1 mg/mL (≈ 1.03 mM) in data set [1] (excipient Ethanol); 146.7 ± 5.1 mg/mL (≈ 169 mM) in data set [1] (excipient Labrasol); 136.8 ± 3.2 mg/mL (≈ 157 mM) in data set [1] (excipient PEG 400); 24.3 ± 0.3 mg/mL (≈ 27.9 mM) in data set [1] (excipient Transcutol P). Further, the “Form stability (change in XRPD pattern of remaining solid phase)” value in data set [2] (listed as Type A form of Compound (1)) is reported as “clear form change”.
